Reference: PubChem BioAssay AID1773 (Sanford-Burnham Center for Chemical Genomics, 2009)

System: MDA-MB-435 TRAIL potentiation, ATPlite cytotoxicity, 24 h
Test: PubChem AID 1773
Details: stronger effect = higher value

`CSc1nc(-c2ccc(C)cc2)nc(C(Cl)Cl)n1` was tested, and the cytotoxicity (at 5 µM) was 50%, the cytotoxicity with 30 ng/mL TRAIL (at 5 µM) was 91% and the cytotoxicity (compound 2.5 uM plus TRAIL 10, at 2.5 µM) was 84%. For the same molecule, the cytotoxicity (compound alone cytotoxicity, at 5 µM) was -1% and the cytotoxicity (compound plus 100 ng/mL TRAIL, at 5 µM) was 83%.
